Legend:
MCF-7 cells = assay: Breast cancer cell viability assay (CellTiter-Glo, 5 days); assay type: cell-based; conditions: 5 days' compound exposure; for IC50: Homo sapiens, MCF7, 120 h
Procedure, shortened: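 MCF-7 cells, 320 per well in RPMI with 10% FBS and 20 mM HEPES, adhered overnight, then exposed 5 days to an eleven-point semilog dilution (final 0.3-0.000003 μM). CellTiter-Glo luminescence read; % viability = (sample − cell-free background)/(untreated − background) × 100.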

ER-α in MCF-7 cells = molecular target: T1, ER-α in MCF-7 cells (Homo sapiens, UniProt P03372); assay: Breast cancer cell ER-α in cell western assay (SP1); assay type: cell-based; design: MCF-7 cells were adjusted to a concentration of 200,000 cells per mL; endogenous in cells; host or cells: MCF-7; conditions: 4 or 24 hr post compound addition; for Emax: MCF7, SP1 antibody, read-out: ER-α In Cell Western Assay (SP1) Max Response; for DC50: SP1 antibody, read-out: ER-α In Cell Western Assay (SP1) IC50
T1 sequence (P03372 1-595): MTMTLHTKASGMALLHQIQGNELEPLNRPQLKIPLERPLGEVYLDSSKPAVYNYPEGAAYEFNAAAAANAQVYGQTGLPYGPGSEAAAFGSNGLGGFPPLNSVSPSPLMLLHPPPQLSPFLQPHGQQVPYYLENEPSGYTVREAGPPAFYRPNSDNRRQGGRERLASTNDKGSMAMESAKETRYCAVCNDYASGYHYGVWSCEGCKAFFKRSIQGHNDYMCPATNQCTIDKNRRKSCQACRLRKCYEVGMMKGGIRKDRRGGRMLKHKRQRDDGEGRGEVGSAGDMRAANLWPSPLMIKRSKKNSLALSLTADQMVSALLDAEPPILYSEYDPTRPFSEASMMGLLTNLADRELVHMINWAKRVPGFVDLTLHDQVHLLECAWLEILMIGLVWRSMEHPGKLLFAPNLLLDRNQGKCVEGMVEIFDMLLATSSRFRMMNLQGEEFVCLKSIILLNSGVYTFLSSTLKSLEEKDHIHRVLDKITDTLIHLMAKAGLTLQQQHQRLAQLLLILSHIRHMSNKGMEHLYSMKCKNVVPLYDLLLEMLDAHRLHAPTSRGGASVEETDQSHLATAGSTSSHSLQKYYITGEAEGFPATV
Method: MCF-7 cells were adjusted to a concentration of 200,000 cells per mL in RPMI containing 10% charcoal-stripped FBS and 20 mM HEPES. 16 microliters of the cell suspension (3200 cells) was added to each well of a poly-D-lysine 384 well plate, and the cells were incubated overnight to allow the cells to adhere. The following day an eleven point, serial semilog dilution of each compound was added to the cells in 16 μL at a final concentration ranging from 0.3-0.000003 μM. At 4 or 24 hr post compound addition, the cells were fixed (10% formalin in PBS) for 20 minutes. Cells were permeablized in PBS 0.1% Triton and blocked with LICOR blocking buffer (50 μl/well, 90°). The wells were then incubated overnight at 4° C. with SP1 rabbit monoclonal Ab (Thermo Scientific) diluted 1:1000 in LICOR blocking buffer/0.1% Tween-20. Wells which were treated with blocking buffer with Tween but no antibody were used as a background control. Wells were washed with 0.1% Tween-20/PBS and then incubated in goat anti-rabbit IRDye™ 800CW (LICOR Inc.; 1:1000) and DRAQ5 DNA dye (1:2000 for 2 mM stock) diluted in LICOR blocking buffer containing 0.1% Tween-20 and 0.01% SDS for 60 minutes. Cells were washed (50 μl/well, 5′ each) in 0.1% Tween-20/PBS. Plates were scanned on a LICOR Odyssey infrared imaging system. Integrated intensities in the 800 nm channel and 700 nm channel were measured to determine levels of ER and DNA respectively. Percent ER levels were determined as follows: (Integrated intensity 800 nm sample/integrated intensity 700 nm sample)/(Integrated intensity 800 nm untreated cells/integrated intensity 700 nm untreated cells)×100=% ER levels.

Structure (SMILES) | MCF7 Viability Assay Max Response (MCF-7 cells) | IC50 (MCF-7 cells) | Emax (ER-α in MCF-7 cells) | DC50 (ER-α in MCF-7 cells)
CC/C(=C(/c1ccc(/C=C/C(=O)O)cc1)c1cn[nH]c1)c1ccccc1 [Compound 150] | + (+ = a single % value < 40%) | > 100 nM | ≥ 40% | > 100 nM
O=C(O)/C=C/c1ccc(/C(=C(\c2ccncc2Cl)C2CCC2)c2ccc3scnc3c2)cc1 [Compound 285] | ++ (++ = a single % value ≧ 40%) | ≤ 100 nM | ≥ 40% | ≤ 100 nM
